In brackets after ≈: the same amount, converted by molar mass. Read-outs that look alike come from different tables or passages of the source.
Key:
[1] = system: Herpes simplex type 1 (HSV-1) strain E-377; assay: CPE-inhibition assay, herpes simplex type 1 strain E-377 in Vero cells; assay type: cell-based, herpes simplex virus type 1; conditions: for VR (Virus Rating): HSV-1 (E-377); for IC50: Human alphaherpesvirus 1, HSV-1 (E-377), minimum drug concentration that inhibited the CPE by 50%, read-out: ID50 (the source's name)
Procedure: (§1) The challenge viruses were propagated and assayed in cells that were pregrown as monolayer cultures in plastic tissue culture flasks and 96-well plates, using cell culture media appropriate for the host cell cultures. The following viruses and host cell cultures were employed:
(§2) green monkey kidney (Vero)
(§3) On the day of use, a weighed sample of each compound to be evaluated was dissolved and diluted in serial 10^0.5 dilutions in the culture medium appropriate for each virus-host cell system.
(§4) Mammalian cells were pregrown as monolayers in wells of COSTAR 96-well tissue culture plates using suitable cell culture media. Stock viruses were pretitered according to the method of Reed and Muench (Amer. J. Hyg. 27:493-497, 1938) and diluted in cell culture medium to yield 32 CCID50 (cell culture infectious dose, 50%) units per 0.1 ml. Antiviral assays were designed to test seven concentrations of each compound, from cytotoxic to noncytotoxic levels, in triplicate against each of the challenge viruses in microtiter plate wells containing suitable cell monolayers. To each of the replicate cell cultures were added 0.1 ml of the test drug solution and 0.1 ml of virus suspension. Cell controls containing medium alone, virus controls containing medium and virus, and drug cytotoxicity controls containing medium and each drug concentration were run simultaneously with the test samples assayed in each experiment. […] The cell monolayers were examined microscopically for virus-induced CPE and for drug cytotoxicity.
(§5) Antiviral activity was determined by calculating the degree of inhibition of virus-induced CPE in drug-treated, virus-infected cell cultures by means of a virus rating (VR). The VR is a standard weighted measurement of antiviral activity taking into account both the degree of CPE inhibition and drug cytotoxicity, and is determined by a modification of the method of Ehrlich et al. (Ann. N.Y. Acad. Sci. 130: 5-16, 1965) as described below. CPE was graded for each individual culture in each microtiter plate well according to the following scale:
(§6) 4=100% of the cells affected by virus;
(§7) 3=75% of the cells affected by virus;
(§8) 2=50% of the cells affected by virus;
(§9) 1=25% of the cells affected by virus;
(§10) 0=No CPE; normal cell monolayer.
(§11) The VR was calculated as 0.1 of the sum of the numerical differences between the recorded CPE grade of each test well and that of the corresponding virus control in the culture plate. Numerical differences between the scores of test wells containing a drug concentration which was partially cytotoxic (p) and their corresponding virus controls were halved.
(§12) The minimum inhibitory drug concentration which reduced the cytopathogenic effect (CPE) by 50% (MIC50) was calculated by using a regression analysis program for semilog curve fitting. A therapeutic index (TI) for each active compound for each susceptible virus was determined by dividing the minimum cytotoxic concentration of the test compound by the MIC50.

[2] = Drug cytotoxicity in Vero cells (microscopic, CPE-inhibition assay); assay type: cell-based; conditions: african green monkey, minimum drug concentration causing any cytotoxicity, read-out: MTC
Procedure: as §4, §5, §12

[3] = system: Herpes simplex type 2 (HSV-2) strain MS; assay: CPE-inhibition assay, herpes simplex type 2 strain MS in Vero cells; assay type: cell-based, herpes simplex virus type 2; conditions: for VR (Virus Rating): HSV-2 (MS)
Procedure: as §1, §2, §3, §4, §5, §6, §7, §8, §9, §10, §11, §12

[4] = in vitro; assay type: cell-based, African green monkey; conditions: monkey, vero cells
Procedure: Vero cell monolayers were harvested by trypsinization. The number of viable cells per ml. was determined by staining an aliquot with trypan blue and counting in a hemocytometer. Cell densities were adjusted in growth medium to contain 4×10^5 cells/mi. 96-well sterile tissue culture plates were seeded with 100 μl/well of the adjusted cell suspensions, i.e., 4×10^4 cells/well. Seeded plates were incubated overnight at 37° C. with CO2.
After overnight incubation, monolayers were approximately confluent. The growth medium was removed and the monolayers in each cell were infected with 100 μl of virus diluted in maintenance medium to produce approximately 90% cytopathogenic effect (CPE) after 2 to 3 days incubation. The virus was allowed to adsorb for 1 hour at 37° C. with 4 to 6% CO2. Controls for cell growth were overlayed with virus-free maintenance medium. The maintenance medium containing residual virus was removed.
The test compounds were dissolved and/or diluted in maintenance medium to the concentration desired for testing and were added to the wells of the plate. Aliquots (100 μl ) of each concentration were added to wells in replicate (duplicate or triplicate). Controls for virus activity were overlayed with drug-free maintenance medium. Replicate wells containing only maintenance medium served as controls for background absorbance levels.
After incubation, the medium was removed from all the wells. 100 μl of neutral red solution was added to each well and the plate was incubated at 37° C. without CO2 for 2 hours. After the 2 hour incubation, the excess neutral red solution was removed. The plates were washed with 100 μl/well of PBS, pH 7.2 and then the PBS was removed.
The neutral red stain taken up by the viable cells was extracted by adding 100 μl/well of acidified methanol, pH 1.0. (The acidified methanol fixed the cells to the well). The plate was allowed to stand at room temperature for at least 15 minutes to allow for maximum extraction. The amount of neutral red stain extracted into the methanol was quantified by determining the absorbance at a wavelength of 540 nm. […]

Row | IC50 [1] | IC50 ([3]; Human alphaherpesvirus 2, HSV-2 (MS), minimum drug concentration that inhibited the CPE by 50%, read-out: ID50 (the source's name)) | Compound | VR (Virus Rating) [1] | MCC ([2]; HSV-1 (E-377)) | MCC ([2]; HSV-2 (MS)) | VR (Virus Rating) [3] | CC50 [4]
1 | 307 µg/mL (≈ 1340 µM) | – | O=c1ccn([C@@H]2O[C@H](CO)[C@H]2CO)c(=O)[nH]1 [Example 23, 1-([2'R,3'R,4'S]-3',4'-Bis(hydroxymethyl)-2'-oxetanyl)uracil] | 0.6 | 320 µg/mL | 320 µg/mL | 0.5 | –
2 | – | – | O=c1[nH]c(=O)n([C@@H]2O[C@H](CO)[C@H]2CO)cc1C=CBr [Example 44, 1-([2'R, 3'R, 4'S]-3',4'-Bis(hydroxymethyl)-2'-oxetanyl)-5-(2-bromo-1-vinyl)uracil] | – | – | – | – | > 1000 µg/mL
3 | 0.8 µg/mL (≈ 3.52 µM) | 1 µg/mL (≈ 4.4 µM) | Nc1ccn([C@@H]2O[C@H](CO)[C@H]2CO)c(=O)n1 [Example 22, 1-([2'R,3'R,4'S]-3',4'-Bis(hydroxymethyl)-2'-oxetanyl)cytosine] | 2.65 | 10 µg/mL | 10 µg/mL | 1.95 | –

Source: patent publication US5420276A, “Analogs of oxetanyl purines and pyrimidines” (Abbott Laboratories, priority 1993, dated 1995)
